In patent publication US12268694B2, “Combination pharmaceutical agents as RSV inhibitors” (Enanta Pharmaceuticals, Inc., priority 2017, dated 2025):
pEC50: −log10 of the molar value.

What was measured:
[1] = Cytotoxicity in parallel to the RSV-A assay (no virus), ATPlite readout; type: cell-based, human; settings: human, HEp-2 cells (uninfected)
Experimental: (§1) Following extensive parameter testing, the final assay is run as follows: HEp-2 cells are seeded into the inner 60 wells of a 96-well plate at 8,000 cells per well in a volume of 50 μL using Growth Media (DMEM without phenol red, 1% L-Glut, 1% Penn/Strep, 1% nonessential amino acids, 10% heat-inactivated FBS). 2-fold serial dilutions of control and test compounds are added to the wells in duplicate in a total volume of 25 μL. Viral stock is then added to the wells at a multiplicity of infection (MOI) of 0.1 in a volume of 25 μL, bringing the total volume of each well to 100 μL. The MOI is calculated using the PFU/mL, or TCID50 if unavailable. Each 96-well plate has a control column of 6 wells with cells and virus but no compound (negative control, max CPE), a column with cells but no compound or virus (positive control, minimum CPE), and a column with no cells or virus or compound (background plate/reagent control). The control wells with cells but no virus are given an additional 25 μL of growth media containing an equal quantity of sucrose as those wells receiving the viral stock in order to keep consistent in media and volume conditions. The outer wells of the plate are filled with 125 μL of moat media (DMEM, 1% Penn/Strep) to act as a thermal and evaporative moat around the test wells. Following a 5-day incubation period, the plates are read using ATPlite (50 μL added per well), which quantifies the amount of ATP (a measure of cell health) present in each well. Assay plates are read using the Envision luminometer. In parallel, cytotoxicity is examined on an additional 96-well plate treated in an identical manner, but substituting the 25 μL of viral stock for 25 μL of growth media. […] EC50 ranges are as follows: A <0.4 μM; B 0.4-0.8 μM; C >0.8 μM and CC50 ranges are as follows: A >50 μM; B 10-50 μM; C <10 μM.

[2] = test system: genotype A, "Long" strain RSV; assay: RSV-A assay: CPE protection in HEp-2 cells, ATPlite readout; type: cell-based, human respiratory syncytial virus; settings: human respiratory syncytial virus, HEp-2, read-out: Human RSV-A (“Long” strain) EC50
Procedure, shortened: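 EC50 derives from ATPlite luminescence after 5-day culture of RSV Long-infected (MOI 0.1) HEp-2 cells, seeded 8,000/well, exposed to duplicate 2-fold compound series. CC50 comes from an identical plate receiving medium instead of virus.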

[3] = test system: RSV genotype B, strain 9320; assay: RSV-B assay: A549 cells infected with RSV-B, qPCR or ATPlite readout; type: cell-based; settings: human respiratory syncytial virus, A549, 144 h, read-out: Human RSV-B EC50
Excerpt: HEp-2 cells, (originally derived from tumors grown in irradiated-cortisonised weanling rats that had been injected with epidermoid carcinoma tissue from a person's larynx, but later found to be indistinguishable from HeLa cells by PCR DNA analysis), were used for the culturing of genotype B, strain 9320. Flasks were inoculated with RSV-B and viral stocks were collected once cytopathic effect (CPE) was greater than […]. Viral stocks in 25% sucrose media were snap frozen using liquid nitrogen to increase viral stability. Viral stock titers were quantified by tissue culture infectious dose 50% (TCID50) using 8,000 cells per well and 5-fold viral dilutions across a 96-well plate, cultured for 4 days. Viral stock titers were also quantified by a plaque forming unit assay, as described elsewhere.
The assay is run as follows: A549 cells (originally derived through explant culture from a person's carcinomatous lung tissue) are seeded into the inner 60 wells of a 96-well plate at 3,000 cells per well in a volume of 50 μL using A549 growth media (F-12K Media, 1% Penn/Strep, 1% nonessential amino acids, 10% heat-inactivated FBS). 2-fold serial dilutions of control and test compounds are added to the wells in duplicate in a total volume of 25 μL. Viral stock is then added to the wells at a multiplicity of infection (MOI) of 0.5 in a volume of 25 μL, bringing the total volume of each well to 100 μL. The MOI is calculated using the PFU/mL, or TCID50 if unavailable. Each 96-well plate has a control column of 6 wells with cells and virus but no compound (negative control, max CPE), a column with cells but no compound or virus (positive control, minimum CPE), and a column with no cells or virus or compound (background plate/reagent control). The control wells with cells but no virus are given an additional 25 μL of growth media containing an equal quantity of sucrose as those wells receiving the viral stock in order to keep consistent in media and volume conditions. The outer wells of the plate are filled with 125 μL of moat media (DMEM, 1% Penn/Strep) to act as a thermal and evaporative moat around the test wells. 6 days post infection, the plates are read using qPCR or ATP lite (50 μL added per well), which quantifies the amount of ATP (a measure of cell health) present in each well. Assay plates treated with APTlite are read using the Envision luminometer. […] EC50 ranges are as follows: A <0.4 μM; B 0.4-0.8 μM; C >0.8 μM.

HEp-2 cells = assay: Cytotoxicity in parallel to the RSV-A assay (no virus), ATPlite readout; type: cell-based, human
Experimental: as §1

Compound	CC50 at 5 days [1] [µM]	pEC50 [2]	pEC50 [3]	CC50 (HEp-2 cells) [µM]
O=C1Nc2ccccc2C(c2ccccc2)=NC1Nc1nnc(-c2ccc3ncsc3c2)o1 (centres unmarked) [Example 42]	> 50	6.10 to 6.40		
O=C1Nc2ccccc2C(c2ccccc2)=N[C@@H]1Nc1nnc(-c2ccc(F)cc2)o1 [Example 7a]		6.10 to 6.40	< 6.10	> 50
